Measurements published in ChEMBL document CHEMBL5357011, “Chemical Catalysis Guides Structural Identification for the Major In Vivo Metabolite of the BET Inhibitor JQ1” (ACS Med Chem Lett, 2024).

Tests used:
Format in all cases: ADME, organism-based
Conditions in all cases: in vivo
[1] = AUC (0 to t) in male C57BL/6NJ mouse at 50 mg/kg, ip measured upto 24 hrs by UHPLC-ESI-Q-Orbitrap-MS analysis; set-up: time < 24 hrs, dose 50 mg/kg, route ip
[2] = AUC (0 to t) in female C57BL/6NJ mouse at 50 mg/kg, ip measured upto 24 hrs by UHPLC-ESI-Q-Orbitrap-MS analysis; set-up: dose 50 mg/kg, time < 24 hrs, route ip
[3] = Observed apparent oral clearance in male C57BL/6NJ mouse at 50 mg/kg, ip measured upto 24 hrs by UHPLC-ESI-Q-Orbitrap-MS analysis
[4] = Observed apparent oral clearance in female C57BL/6NJ mouse at 50 mg/kg, ip measured upto 24 hrs by UHPLC-ESI-Q-Orbitrap-MS analysis

Compound	AUCt [1]	AUCt [2]	CL/F [3]	CL/F [4]
[2H]C([2H])([2H])c1sc2c(c1C)C(c1ccc(Cl)cc1)=N[C@@H](CC(=O)OC(C)(C)C)c1nnc(C)n1-2	94.2 µg/mL/h	50.5 µg/mL/h	0.528 (mg)/(ug/ml)/hr	
Cc1sc2c(c1C)C(c1ccc(Cl)cc1)=N[C@@H](CC(=O)OC(C)(C)C)c1nnc(C)n1-2	75.1 µg/mL/h	41.1 µg/mL/h	0.661 (mg)/(ug/ml)/hr	1.22 (mg)/(ug/ml)/hr
